From patent US20060281714A1, “Combinations of a cathepsin k inhibitor and a bisphosphonate in the treatment of bone metastasis, tumor growth and tumor-induced bone loss” (priority 2003, published 2006)

Tested on: 4T1Luc2000 mouse mammary carcinoma cells
Test: Osteolytic activity in the 4T1Luc2000 assay (intra-tibial injection of tumor cells)
Format: in vivo, Athymic Balb\c nude, female mice
Conditions: 50 mg/kg p.o. twice daily, in combination with Zoledronic Acid 100 ug/kg s.c. twice weekly; compared with Zoledronic Acid single treatment
Protocol: Intra-Tibial Injection of 4T1Luc2000 Mouse Mammary Carcinoma Cells:
Athymic Balb\c nude, female mice (Spezialzuchten, Stein, Switzerland) are anaesthetized by i.p. administration of […] ketarom: a mixture of 100 mg/kg Ketalar® 50 (Parker-Davis, Zurich, Switzerland) and 10 mg/kg xylazine (Rompun®, Bayer, Lyssach, Switzerland). Using a 30 gauze needle a cell suspension of […] in […] of HBSS (Invitrogen, Basel Switzerland) is injected through the articular cartilage and epiphysis into the tibia. In total, 48 animals in 6 groups, 8 animals each, are used in this study. […]
Peripheral Quantitative Computed Tomography (pQCT), End-Point Determination:
Total, cortical, and cancellous bone mass and geometry are monitored using an XCT-Research SA+ (Stratec-Norland, Pforzheim, Germany) fitted with a 0.5 mm collimator. […] Slices located 2, 3, 4, and 5 mm distal from the intercondylar tubercle in the proximal tibia metaphysis are analysed. […]
3D structural parameters of cancellous bone are measured non-invasively by microCT as described. […] A region of 200 slices at a position of 1 mm below the growth plate (secondary spongiosa) corresponding to the site of injection of the 4T1luc2000 cells is measured at a nominal resolution of approximately 15 μm (FIG. 3). […]
All results from the bone studies are expressed as mean *standard error (SEM). […]

In the case of `CCCN1CCC(c2ccc(C(=O)NC3(C(=O)NCC#N)CCCCC3)cc2)CC1` [N-[1-(Cyanomethyl-carbamoyl)-cyclohexyl]-4-(1-propyl-piperidin-4-yl)-benzamide], the anti-osteolytic activity is reported as “additive anti-osteolytic activity which is superior to Zoledronic Acid single treatment”.
